Data from patent US20100267637A1, “TREATMENT OF MELANOMA WITH ALPHA THYMOSIN PEPTIDES IN COMBINATION WITH A KINASE INHIBITOR” (SciClone Pharmaceuticals, Inc., priority 2007, published 2010).

Tested on: murine B16 melanoma cells
Test: Anti-tumor effect: tumor size / tumor volume in mice bearing subcutaneous B16 melanoma
Type: in vivo, C57BL/6 mice
Design: key to Tumor measurement L (length) / Tumor measurement W (width): The sign “—” indicates that tumor does not reach a measurable size
Settings: for Tumor Volume (cm^3) (Mean ± SD): group mean; for PI (TV), percent inhibition of tumor volume: vs vehicle; for Tumor volumes on Day 15: Length × Width × Width/2
Method: The toxic effects of the dosing regimens were also monitored. […] Meanwhile 9H10 was given in two groups via i.p. on Day 3, 6 and 9. […] Tumor volume and body weight were measured every three days, and tumor weights were measured on Day 16 at the end of the study.
As per aseptic tissue culture procedures, one vial of B16 melanoma cells was removed from the liquid nitrogen stock, and placed into a 37° C. water bath. Gentle swirling was conducted until the content of the vial was thawed. Using tissue culture/sterile procedures, the cells were immediately centrifuged with a TD5A-WS centrifuge at 1000 rpm, 20-25° C., 5 min. After centrifugation, the cells were suspended in 0.1 to 0.5 mL normal saline (NS) and subcutaneously injected into 10 mice (0.1 mL/mouse, about 1×10^6 cells). After 7-10 days, when the tumor diameter was approximately 1 cm, the animals were euthanized with CO2 overdose and the tumors excised. The procedure was repeated with 20 mice to generate a sufficient number of B16 melanoma cells with adequate transplantability.
On the day of tumor implantation, approximately 1×10^6 cells in 0.1 mL were subcutaneously injected on the right axillary area of each mouse. The day of tumor implantation was defined as Day 0.
On Day 3, the animals were randomly assigned into nine different weight-matched and tumor-size-matched groups. Dosing was started on Day 3 using the regimen according to Table 2.
From Day 1 to Day 15, mortality and moribundity were checked twice daily, the body weights were recorded once every 3 days, and tumors were measured using a caliper once every 3 days. At the end of the study (Day 16), the animals were euthanized by CO2 asphyxiation, and the tumors were excised and weighed.
Based on the tumor size, the tumor volume (TV) was calculated with the formula: [TV=(Length×Width×Width)/2]. And the percent inhibition (PI) of TV (PITV) was calculated according to the equation below:
PITV(%)=(TV vehicle−TVdrug treated)/TV vehicle×100
Inter-group comparison was performed in terms of tumor volume, tumor weight and body weight, using a student's t test. P values of less than 0.05 were considered to be statistically significant.

CN(C)/N=N/c1[nH]cnc1C(N)=O [DTIC, Dacarbazine]
48.12%: PI (TV), percent inhibition of tumor volume (Day 15)
0.1715 cm^3: Tumor volume (Day 12, animal F4) | Tumor volume (Day 12, animal M1) | Tumor volumes on Day 15 (Day 15, animal F4)
0.50 cm: Tumor measurements on Day 12, L (Day 12, animal F1) | Tumor measurements on Day 12, W (Day 12, animal F1) | Tumor measurements on Day 15, L (Day 15, animal F2) | Tumor measurements on Day 15, W (Day 15, animal F2)
0.380 ± 0.2991 cm^3: Tumor Volume (cm^3) (Mean ± SD) (Day 15)
0.2560 cm^3: Tumor volumes on Day 15 (Day 15, animal F1)
71.15%: PI (TV), percent inhibition of tumor volume (Day 9)
0.3645 cm^3: Tumor volume (Day 12, animal M2) | Tumor volumes on Day 15 (Day 15, animal M5)
0.0000 cm^3: Tumor volume (Day 3, animal F1) | Tumor volume (Day 3, animal F2) | Tumor volume (Day 3, animal F4) | Tumor volume (Day 3, animal F5) | Tumor volume (Day 3, animal M1) | Tumor volume (Day 3, animal M3) | Tumor volume (Day 3, animal M4) | Tumor volume (Day 6, animal F1) | Tumor volume (Day 6, animal F2) | Tumor volume (Day 6, animal F4) | Tumor volume (Day 6, animal F5) | Tumor volume (Day 6, animal M1) | Tumor volume (Day 6, animal M2) | Tumor volume (Day 6, animal M3) | Tumor volume (Day 6, animal M4) | Tumor volume (Day 6, animal M5) | Tumor volume (Day 9, animal F2)
0.1350 cm^3: Tumor volume (Day 12, animal F5)
0.70 cm: Tumor measurements on Day 12, L (Day 12, animal F4) | Tumor measurements on Day 12, W (Day 12, animal F4) | Tumor measurements on Day 12, L (Day 12, animal M1) | Tumor measurements on Day 12, W (Day 12, animal M1) | Tumor measurements on Day 15, L (Day 15, animal F4) | Tumor measurements on Day 15, W (Day 15, animal F4)
0.000 ± 0.0002 cm^3: Tumor Volume (cm^3) (Mean ± SD) (Day 6)
1.20 cm: Tumor measurements on Day 15, L (Day 15, animal M2) | Tumor measurements on Day 15, W (Day 15, animal M2) | Tumor measurements on Day 15, L (Day 15, animal M4) | Tumor measurements on Day 15, W (Day 15, animal M4)
0.3 cm: Tumor measurements on Day 12, L (Day 12, animal F5)
0.0625 cm^3: Tumor volume (Day 12, animal F1) | Tumor volumes on Day 15 (Day 15, animal F2)
0.195 ± 0.1932 cm^3: Tumor Volume (cm^3) (Mean ± SD) (Day 12)
0.5000 cm^3: Tumor volume (Day 12, animal M3) | Tumor volume (Day 12, animal M4) | Tumor volumes on Day 15 (Day 15, animal M1) | Tumor volumes on Day 15 (Day 15, animal M3)
0.006 ± 0.0065 cm^3: Tumor Volume (cm^3) (Mean ± SD) (Day 9)
0.90 cm: Tumor measurements on Day 12, L (Day 12, animal M2) | Tumor measurements on Day 12, W (Day 12, animal M2) | Tumor measurements on Day 15, L (Day 15, animal M5) | Tumor measurements on Day 15, W (Day 15, animal M5)
—: Tumor measurement L (length) (Day 3, animal F1) | Tumor measurement W (width) (Day 3, animal F1) | Tumor measurement L (length) (Day 3, animal F2) | Tumor measurement W (width) (Day 3, animal F2) | Tumor measurement L (length) (Day 3, animal F4) | Tumor measurement W (width) (Day 3, animal F4) | Tumor measurement L (length) (Day 3, animal F5) | Tumor measurement W (width) (Day 3, animal F5) | Tumor measurement L (length) (Day 3, animal M1) | Tumor measurement W (width) (Day 3, animal M1) | Tumor measurement L (length) (Day 3, animal M3) | Tumor measurement W (width) (Day 3, animal M3) | Tumor measurement L (length) (Day 3, animal M4) | Tumor measurement W (width) (Day 3, animal M4) | Tumor measurement L (length) (Day 6, animal F1) | Tumor measurement W (width) (Day 6, animal F1) | Tumor measurement L (length) (Day 6, animal F2) | Tumor measurement W (width) (Day 6, animal F2) | Tumor measurement L (length) (Day 6, animal F4) | Tumor measurement W (width) (Day 6, animal F4) | Tumor measurement L (length) (Day 6, animal F5) | Tumor measurement W (width) (Day 6, animal F5) | Tumor measurement L (length) (Day 6, animal M1) | Tumor measurement W (width) (Day 6, animal M1) | Tumor measurement L (length) (Day 6, animal M2) | Tumor measurement W (width) (Day 6, animal M2) | Tumor measurement L (length) (Day 6, animal M3) | Tumor measurement W (width) (Day 6, animal M3) | Tumor measurement L (length) (Day 6, animal M4) | Tumor measurement W (width) (Day 6, animal M4) | Tumor measurement L (length) (Day 6, animal M5) | Tumor measurement W (width) (Day 6, animal M5)
0.0005 cm^3: Tumor volume (Day 3, animal M2) | Tumor volume (Day 3, animal M5) | Tumor volume (Day 6, animal F3) | Tumor volume (Day 9, animal F3) | Tumor volume (Day 9, animal F4) | Tumor volume (Day 9, animal F5) | Tumor volume (Day 9, animal M5)
43.22%: PI (TV), percent inhibition of tumor volume (Day 12)
1.00 cm: Tumor measurements on Day 12, L (Day 12, animal M3) | Tumor measurements on Day 12, W (Day 12, animal M3) | Tumor measurements on Day 12, L (Day 12, animal M4) | Tumor measurements on Day 12, W (Day 12, animal M4) | Tumor measurements on Day 15, L (Day 15, animal M1) | Tumor measurements on Day 15, W (Day 15, animal M1) | Tumor measurements on Day 15, L (Day 15, animal M3) | Tumor measurements on Day 15, W (Day 15, animal M3)
90.91%: PI (TV), percent inhibition of tumor volume (Day 6)
0.001 ± 0.0012 cm^3: Tumor Volume (cm^3) (Mean ± SD) (Day 3)
0.80 cm: Tumor measurements on Day 15, L (Day 15, animal F1) | Tumor measurements on Day 15, W (Day 15, animal F1)
0.10 cm: Tumor measurement L (length) (Day 3, animal M2) | Tumor measurement W (width) (Day 3, animal M2) | Tumor measurement L (length) (Day 3, animal M5) | Tumor measurement W (width) (Day 3, animal M5) | Tumor measurement L (length) (Day 6, animal F3) | Tumor measurement W (width) (Day 6, animal F3) | Tumor measurement L (length) (Day 9, animal F3) | Tumor measurement W (width) (Day 9, animal F3) | Tumor measurement L (length) (Day 9, animal F4) | Tumor measurement W (width) (Day 9, animal F4) | Tumor measurement L (length) (Day 9, animal F5) | Tumor measurement W (width) (Day 9, animal F5) | Tumor measurement L (length) (Day 9, animal M5) | Tumor measurement W (width) (Day 9, animal M5)
0.30 cm: Tumor measurement L (length) (Day 9, animal M1) | Tumor measurement W (width) (Day 9, animal M1) | Tumor measurement L (length) (Day 9, animal M2) | Tumor measurement W (width) (Day 9, animal M2) | Tumor measurement L (length) (Day 9, animal M3) | Tumor measurement W (width) (Day 9, animal M3) | Tumor measurement L (length) (Day 9, animal M4) | Tumor measurement W (width) (Day 9, animal M4) | Tumor measurements on Day 12, L (Day 12, animal F2) | Tumor measurements on Day 12, W (Day 12, animal F2) | Tumor measurements on Day 12, L (Day 12, animal F3) | Tumor measurements on Day 12, W (Day 12, animal F3) | Tumor measurements on Day 12, W (Day 12, animal F5) | Tumor measurements on Day 12, L (Day 12, animal M5) | Tumor measurements on Day 12, W (Day 12, animal M5)
0.20 cm: Tumor measurement L (length) (Day 3, animal F3) | Tumor measurement W (width) (Day 3, animal F3) | Tumor measurement L (length) (Day 9, animal F1) | Tumor measurement W (width) (Day 9, animal F1)
0.0135 cm^3: Tumor volume (Day 9, animal M1) | Tumor volume (Day 9, animal M2) | Tumor volume (Day 9, animal M3) | Tumor volume (Day 9, animal M4) | Tumor volume (Day 12, animal F2) | Tumor volume (Day 12, animal F3) | Tumor volume (Day 12, animal M5)
−400.00%: PI (TV), percent inhibition of tumor volume (Day 3)
0.8640 cm^3: Tumor volumes on Day 15 (Day 15, animal M2) | Tumor volumes on Day 15 (Day 15, animal M4)
0.60 cm: Tumor measurements on Day 15, L (Day 15, animal F3) | Tumor measurements on Day 15, W (Day 15, animal F3) | Tumor measurements on Day 15, L (Day 15, animal F5) | Tumor measurements on Day 15, W (Day 15, animal F5)
0.1080 cm^3: Tumor volumes on Day 15 (Day 15, animal F3) | Tumor volumes on Day 15 (Day 15, animal F5)
0.0040 cm^3: Tumor volume (Day 3, animal F3) | Tumor volume (Day 9, animal F1)
